The structures appear in SMILES notation. Structures can show the parent of a compound that is named as a salt.

This test deals with T1, His-MBP-TEV-Full length human TNNI3K (hTNNI3K) (Homo sapiens, UniProt Q59H18).
T1 construct: His-MBP-TEV-Full length human TNNI3K (hTNNI3K); His (N); TEV cleavage site (N); made in house; host or cells: baculovirus system (printed 'Baculokinase system')
T1 sequence (Q59H18 1-835): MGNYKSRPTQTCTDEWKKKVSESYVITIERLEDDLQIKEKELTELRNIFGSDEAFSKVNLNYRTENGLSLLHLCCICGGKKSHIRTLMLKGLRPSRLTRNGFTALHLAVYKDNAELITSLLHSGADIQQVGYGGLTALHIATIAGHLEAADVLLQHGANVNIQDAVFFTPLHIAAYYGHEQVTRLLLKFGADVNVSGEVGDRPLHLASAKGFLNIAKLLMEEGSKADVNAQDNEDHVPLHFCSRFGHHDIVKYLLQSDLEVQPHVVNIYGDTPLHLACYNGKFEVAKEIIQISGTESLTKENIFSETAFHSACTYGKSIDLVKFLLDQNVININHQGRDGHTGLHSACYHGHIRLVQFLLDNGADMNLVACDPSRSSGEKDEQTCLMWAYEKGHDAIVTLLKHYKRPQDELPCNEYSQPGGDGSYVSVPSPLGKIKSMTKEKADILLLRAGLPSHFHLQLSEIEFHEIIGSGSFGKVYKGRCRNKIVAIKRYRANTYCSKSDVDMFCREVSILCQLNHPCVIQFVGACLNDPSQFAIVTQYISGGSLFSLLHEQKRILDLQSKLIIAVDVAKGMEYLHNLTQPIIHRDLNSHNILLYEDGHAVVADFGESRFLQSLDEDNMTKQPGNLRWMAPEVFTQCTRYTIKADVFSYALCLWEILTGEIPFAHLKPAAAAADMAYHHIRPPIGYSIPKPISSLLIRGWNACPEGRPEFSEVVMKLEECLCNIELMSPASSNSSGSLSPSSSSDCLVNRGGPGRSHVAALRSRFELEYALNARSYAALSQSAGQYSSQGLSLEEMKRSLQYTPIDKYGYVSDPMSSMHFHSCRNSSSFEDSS
The experiment in a line: Fluorescent polarization assay of compound inhibition on hTNNI3K ATP binding (Biological Assay Method I). To be noted: displacement of fluorescent ligand, mean of a minimum of 2 experiments, read-out: mean pXC50 (converted). The source says: Materials: His-MBP-TEV-Full length human TNNI3K (hTNNI3K) was expressed in Baculokinase system and purified from amylase affinity column followed by Superdex200. The fluorescent ligand 5-({[2-({[3-({4-[(5-hydroxy-2-methylphenyl)amino]-2-pyrimidinyl}amino)phenyl]carbonyl}amino)ethyl]amino}carbonyl)-2-(6-hydroxy-3-oxo-3H-xanthen-9-yl)benzoic acid was used. The other buffer components, including MgCl2 (Catalog Number M1028), Bis-Tris (Catalog Number B7535), DTT (Catalog Number D9779) and Chaps (Catalog Number C3023) were purchased from Sigma-Aldrich.
A fluorescent polarization assay was used to determine does response of compound inhibition on hTNNI3K ATP binding. […]
Fifty (50) nL of inhibitors in DMSO (or DMSO controls) were stamped into a 384-well low volume Greiner black plate, followed by addition of 5 μL of Solution 1 to column 18 and 5 μL Solution 2 to columns 1-17 and 19-24 of the plate. […] After that, the fluorescent polarization was measured on Analyst (ex/em: 485/530 nm, Dichroic: 505). […]

Take `CNc1cc(Oc2c(C)cc(NC(=O)Nc3cccc(C(F)(F)F)c3)cc2C)ncn1` [Example 5, N-(3,5-dimethyl-4-{[6-(methylamino)-4-pyrimidinyl]oxy}phenyl)-N′-[3-(trifluoromethyl)phenyl]urea trifluoroacetate]: the IC50 was 0.0251 µM.

`CNc1cc(Oc2ccc(NC(=O)Nc3cccc(C(F)(F)F)c3)cc2F)ncn1` [Example 11, N-(3-fluoro-4-{[6-(methylamino)-4-pyrimidinyl]oxy}phenyl)-N′-[3-(trifluoromethyl)phenyl]urea trifluoroacetate]: the IC50 was 0.0251 µM.

Source of the values: patent publication US20120157482A1, “COMPOUNDS AND METHODS” (priority 2009, published 2012).
